We go through three molecules from US20220000878A1, “METHODS OF TREATMENT OF MALIGNANCIES” (Servier Pharmaceuticals, LLC, priority 2015, published 2022).

The test system of series [1] is advanced hematologic malignancies with an IDH2 mutation. Briefly: NRAS mutation status and COMPOUND 1 response (next generation sequencing of screening samples, Fisher's exact test). The format is in vivo, human. On the procedure:
A subset of the clinical samples from the trial described in Example 1 were analyzed at screening. Sample types included bone marrow, peripheral blood and mononuclear cells isolated from bone marrow or peripheral blood. DNAs were extracted from these samples and sequenced at Foundation Medicine (see http://foundationone.com/learn.php) using next generation sequencing technique.
A total of 60 genes were identified to carry at least one mutation in the analyzed set (including IDH2 gene). Fisher's exact test was conducted to evaluate the association of somatic mutations with clinical response (responders include CR, CRp, CRi and PR, indicated as +, while none-responders include SD and PD, indicated as—in Table 11). The P-values were adjusted by multiple-test correction.
Mutation status positive (+) means any known mutation(s) in NRAS, and negative (−) means no mutation in NRAS was present.
Positive response status (+) includes CR, mCR and PR and negative response status (−) includes stable disease (SD) and progressive disease (PD).

Series [2] shares this test system. Briefly: Phase 1/2 study AG221-C-001: clinical activity and safety. The format is in vivo, human. From the text:
(§1) This is a Phase 1/2, multicenter, open-label, 3-part (Phase 1 dose escalation, Phase 1 Part 1 Expansion, and Phase 2), safety, PK/PD, and clinical activity evaluation of orally administered COMPOUND 1 in subjects with advanced hematologic malignancies that harbor an IDH2 mutation. The study includes a dose escalation phase to determine MTD/MAD and/or RP2D, an expansion phase (Part 1) to further evaluate the safety, tolerability, and clinical activity of COMPOUND 1, and a Phase 2 to assess the clinical efficacy of COMPOUND 1 at the RP2D and to further evaluate safety in subjects with refractory and relapsed AML carrying an IDH2 mutation.
Subjects in the dose escalation phase and Part 1 Expansion will have the extent of their disease assessed, including bone marrow biopsies and/or aspirates and peripheral blood, at screening, on C1D15, C2D1, and C3D1, every 28 days (peripheral blood only) or every 56 days (bone marrow biopsies and/or aspirates and peripheral blood) thereafter while on study drug treatment, independent of dose delays and/or dose interruptions, and/or at any time when progression of disease is suspected. Response to treatment and treatment decisions in all subjects will be determined by the Investigators based on modified International Working Group (IWG) response criteria or other appropriate response criteria for the malignancy under study. […]

A further series relates to 2-HG. Briefly: Phase 1/2 study AG221-C-001: pharmacodynamic response (2-HG plasma levels). The format is in vivo, human.
From the text: as §1
Subjects in the dose escalation phase and Part 1 Expansion also will undergo PK/PD assessments over a 10-hour period on C1D15, C2D1, and C4D1. […] These subjects will have urine collected for PK/PD evaluation at screening; prior to dosing on C1D15, C2D1 and Day 1 of all cycles thereafter; and at the End of Treatment visit. Available bone marrow biopsy samples also will be assessed for 2-HG and α-KG levels.
The starting dose of COMPOUND 1 recommended for evaluation is 100 mg QD. This is based on the safety, PK, pharmacodynamics and clinical activity of COMPOUND 1 observed to date in AG221-C-001. […] Thus a dose of 100 mg should adequately achieve inhibition of 2-HG in subjects with either R140Q or R172K mutation.
Serial blood sampling for determination of concentration-time profiles of COMPOUND 1 and its metabolite (6-(6-(trifluoromethyl)pyridin-2-yl)-N2-(2-(trifluoromethyl)pyridin-4-yl)-1,3,5-triazine-2,4-diamine). Urine sampling for determination of concentrations of COMPOUND 1 and its metabolite (6-(6-(trifluoromethyl)pyridin-2-yl)-N2-(2-(trifluoromethyl)pyridin-4-yl)-1,3,5-triazine-2,4-diamine) (dose escalation and Part 1 expansion subjects only). Blood and bone marrow sampling for determination of 2-HG and α-KG levels.

Series [3] deals with advanced hematologic malignancies with an IDH1 mutation. Briefly: NRAS mutation status and COMPOUND 2 response (subset of clinical samples of the Phase 1 trial). To be noted: cancer with mutant allele of IDH1. The format is in vivo, human. The source says: This study is a Phase 1, multicenter, open-label, dose-escalation, safety, PK/PD, and clinical activity evaluation of orally administered COMPOUND 2 in subjects with advanced hematologic malignancies that harbor an IDH1 mutation. The study includes a dose escalation phase to determine MTD and/or RP2D followed by expansion arms to further evaluate the safety, tolerability, and clinical activity of COMPOUND 2 in select populations.
A analysis of a subset of the clinical samples from the trial for COMPOUND 2 was conducted. FIG. 14 provides a visual of NRAS mutations according to response categories for COMPOUND 2. FIG. 14 profiles bone marrow at screening visit for patients only where genes were mutated in ≥2. In FIG. 14, genes (y-axis) are shown in decreasing order of frequency, with the exception of IDH2, while patients (x-axis) are grouped by response then by similarity in alterations; only patients from dose escalation phase with an evaluable response included.
A subset of the clinical samples from the trial for COMPOUND 2 described in Example 3 was analyzed for mutations in the samples. FIG. 14 provides a visual of commutations, including NRAS mutations according to response categories for COMPOUND 2. FIG. 14 profiles bone marrow at screening visit for patients only where genes were mutated in ≥2. […]

Series [4] can be described thus: solubility in fasted state simulated intestinal fluid (FASSIF). The format is physicochemical. To be noted: pH 6.1, fassif, thermodynamic from solid, pH of 6.1 at 4 hours. On the procedure: In comparison, amorphous spray-dried dispersions have a solubility of about 0.05 mg/mL to about 0.50 mg/mL in FASSIF at 3 hours.

SMILES strings stand for the structures. ≈ marks a conversion by molar mass, not a printed value. Entries after “also recorded” stand apart in the source; their conditions may differ.

For orientation: solubility means the dissolved amount per volume that the medium holds. A lower solubility goes with little dissolved substance.

On to `CC(C)(O)CNc1nc(Nc2ccnc(C(F)(F)F)c2)nc(-c2cccc(C(F)(F)F)n2)n1` [COMPOUND 1, 2-methyl-1-[(4-[6-(trifluoromethyl)pyridin-2-yl]-6-{[2-(trifluoromethyl)pyridin-4-yl]amino}-1,3,5-triazin-2-yl)amino]propan-2-ol], for which the “association of NRAS mutation status with response” value in series [1] (cancer with mutant allele of IDH2) is given as “associated with responses; also recorded: significantly associated”. In series [1] (non-responders (SD, PD), any known NRAS mutation), the “number of patients, response status − , NRAS mutation +” value is recorded as 21. For the same molecule, the “number of patients, response status − , NRAS mutation −” value in series [1] (non-responders (SD, PD), no NRAS mutation) stood at 40. Besides, the “number of patients, response status + , NRAS mutation +” value in series [1] (responders, any known NRAS mutation, N = 118 analyzed) came to 2. In addition, the “number of patients, response status + , NRAS mutation −” value in series [1] (responders, no NRAS mutation, N = 118 analyzed) worked out at 55. Further, the “safety profile, including ≥Grade 3” value in series [2] (100 mg) is on record as “consistent with that of lower doses”. The same molecule came in with an overall response rate in series [2] (44 subjects treated at 100 mg QD, preliminary efficacy data) of 36.4%. Moreover, the “reduction in 2-HG plasma levels” value in the series on 2-HG (by Day 1 of Cycle 2) was “sustained reduction”. In addition, in the series on 2-HG (most subjects with R140Q mutation, all doses, plasma), the “inhibition of 2-HG” value is “up to 98%”. Also, the “dose dependence of exposure and inhibition of 2-HG” value with 2-HG (subjects with R172K mutation) is “Increasing dose is associated with higher exposure and inhibition of 2-HG”.
As for `N#Cc1ccnc(N2C(=O)CC[C@H]2C(=O)N(c2cncc(F)c2)[C@H](C(=O)NC2CC(F)(F)C2)c2ccccc2Cl)c1` [COMPOUND 2, (S)—N—((S)-1-(2-chlorophenyl)-2-((3,3-difluorocyclobutyl)amino)-2-oxoethyl)-1-(4-cyanopyridin-2-yl)-N-(5-fluoropyridin-3-yl)-5-oxopyrrolidine-2-carboxamide], in series [3], the “association of NRAS mutation status with response” value is “associated with responses”.
Consider `N#Cc1ccnc(N2C(=O)CC[C@H]2C(=O)N(c2cncc(F)c2)[C@H](C(=O)NC2CC(F)(F)C2)c2ccccc2Cl)c1` [Form 2], for which, in series [4], the solubility at 4 h is approximately 18 µg/mL (≈ 30.9 µM).
